Experimental data published in patent US9028845B2, “Chimeric immunomodulatory compounds and methods of using the same-IV” (Dynavax Technologies Corporation, priority 2001, dated 2015).

Legend:
[1] = test system: CD19+ B cells; test: Human B cell proliferation assay (3H-thymidine incorporation)
Method: Purified human B cells from 2 donors were stimulated with 5 μg/ml P-6 or CIC for 96 h. Proliferation was assessed by ^3H-thymidine incorporation.
A CIC is considered to induce “little” human B cell proliferation if B cell proliferation in the presence of the CIC is between greater than 15 to about 30% of P-6.
Human PBMCs were isolated from heparanized blood from two normal subjects. Some PBMCs were held in reserve while the remainder was incubated with CD19+ MACS beads (Miltenyi Biotec). These cells were then passed through a magnet, separating the CD19+ B cells through positive selection. […] B cells were then cultured at 1×10^5/200 μl/well in 96-well round-bottomed plates. In some cases, PBMCs were also cultured, but at 2×10^5/200 μl/well. Cells were stimulated in triplicate with 2 μg/ml polynucleotide or CIC. The culture period was 48 hours at 37° C. At the end of the culture period, the plates were pulsed with ^3H-thymidine, 1 μCi/well, and incubated for an additional 8 hours. Then the plates were harvested using standard liquid scintillation techniques and data was collected in counts per minutes (cpm).

[2] = test system: human PBMCs; test: Human PBMC cytokine response assay (IFN-γ and IFN-α in cell-free medium by ELISA), with or without cPLGA; format: cell-based;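 for IFN-α (pg/ml) mean: 20 µg/mL compound for 24 hours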;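 for IFN-γ (pg/ml) mean: 20 µg/mL compound for 24 hours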
[3] = B cells, donor 121, 2 μg/ml, Experiment B
[4] = B cells, donor 194, 2 μg/ml, Experiment B
[5] = donor 28066, 20 ug/ml, 24 h, + PLGA = premixed with 100 μg/ml cPLGA
[6] = donor 28067, 20 ug/ml, 24 h, + PLGA = premixed with 100 μg/ml cPLGA
[7] = donor 28068, 20 ug/ml, 24 h, + PLGA = premixed with 100 μg/ml cPLGA
[8] = mean of donors 28065-28068, 20 ug/ml, 24 h, + PLGA = premixed with 100 μg/ml cPLGA

5′-TCGTCG-3′-C12-5′-ACGTTCG-3′-C12-5′-AGATGAT-3′ [Compound C-19]
B cell proliferation, in words ([1]; 2 μg/ml, 48 h plus 8 h 3H-thymidine pulse): inactive
cpm1 [1, 3]: 858 cpm
cpm2 [1, 3]: 1099 cpm
cpm3 [1, 3]: 926 cpm
mean cpm ([1]; B cells, donor 121 mean, 2 μg/ml, Experiment B): 961 cpm
cpm1 [1, 4]: 371 cpm
cpm2 [1, 4]: 403 cpm
cpm3 [1, 4]: 312 cpm
mean cpm ([1]; B cells, donor 194 mean, 2 μg/ml, Experiment B): 362 cpm
mean of both ([1]; B cells, mean of donors 121 and 194, 2 μg/ml, Experiment B): 662 cpm
IFN-γ (pg/ml) 28065 ([2]; donor 28065 (high background), 20 ug/ml, 24 h, + PLGA = premixed with 100 μg/ml cPLGA, 1000 = outside assay limits): 84 pg/mL
IFN-α (pg/ml) 28065 ([2]; donor 28065, 20 ug/ml, 24 h, + PLGA = premixed with 100 μg/ml cPLGA): 0 pg/mL
IFN-α (pg/ml) 28066 [2, 5]: 1 pg/mL
IFN-γ (pg/ml) 28066 [2, 5]: 8 pg/mL
IFN-α (pg/ml) 28067 [2, 6]: 0 pg/mL
IFN-γ (pg/ml) 28067 [2, 6]: 1 pg/mL
IFN-α (pg/ml) 28068 [2, 7]: 13 pg/mL
IFN-γ (pg/ml) 28068 [2, 7]: 2 pg/mL
IFN-α (pg/ml) mean [2, 8]: 4 pg/mL
IFN-γ (pg/ml) mean [2, 8]: 24 pg/mL
immunomodulatory activity (IFN-γ / IFN-α secretion), in words ([2]; used alone (no cPLGA)): did not show activity

(5′-TCGTCGT-3′-HEG)2-glycerol-HEG-5′-TCGTCGT-3′ [Compound C-142]
B cell proliferation (FIG. 11), in words ([1]; purified human B cells, 5 μg/ml, 96 h): induce B cells to proliferate
IFN-α induction (FIG. 10), in words ([2]; PBMCs from 8 donors, 20 μg/ml, 24 h): induce high levels of IFN-α
